Data published in ChEMBL document CHEMBL2385078, “The systematic structure-activity relationship to predict how flavones bind to human androgen receptor for their antagonistic activity” (Bioorg Med Chem, 2013).
Activity calls are given as the source filed them. The calls are words filed in the database; no cut-off is given here.

Experiments:
[1] = target: T1, Androgen receptor (Homo sapiens, UniProt P10275); experiment: Antagonist activity at human androgen receptor LBD expressed in human MDA-kb2 cells by luciferase reporter gene assay; format: cell-based
T1 sequence (P10275 whole entry): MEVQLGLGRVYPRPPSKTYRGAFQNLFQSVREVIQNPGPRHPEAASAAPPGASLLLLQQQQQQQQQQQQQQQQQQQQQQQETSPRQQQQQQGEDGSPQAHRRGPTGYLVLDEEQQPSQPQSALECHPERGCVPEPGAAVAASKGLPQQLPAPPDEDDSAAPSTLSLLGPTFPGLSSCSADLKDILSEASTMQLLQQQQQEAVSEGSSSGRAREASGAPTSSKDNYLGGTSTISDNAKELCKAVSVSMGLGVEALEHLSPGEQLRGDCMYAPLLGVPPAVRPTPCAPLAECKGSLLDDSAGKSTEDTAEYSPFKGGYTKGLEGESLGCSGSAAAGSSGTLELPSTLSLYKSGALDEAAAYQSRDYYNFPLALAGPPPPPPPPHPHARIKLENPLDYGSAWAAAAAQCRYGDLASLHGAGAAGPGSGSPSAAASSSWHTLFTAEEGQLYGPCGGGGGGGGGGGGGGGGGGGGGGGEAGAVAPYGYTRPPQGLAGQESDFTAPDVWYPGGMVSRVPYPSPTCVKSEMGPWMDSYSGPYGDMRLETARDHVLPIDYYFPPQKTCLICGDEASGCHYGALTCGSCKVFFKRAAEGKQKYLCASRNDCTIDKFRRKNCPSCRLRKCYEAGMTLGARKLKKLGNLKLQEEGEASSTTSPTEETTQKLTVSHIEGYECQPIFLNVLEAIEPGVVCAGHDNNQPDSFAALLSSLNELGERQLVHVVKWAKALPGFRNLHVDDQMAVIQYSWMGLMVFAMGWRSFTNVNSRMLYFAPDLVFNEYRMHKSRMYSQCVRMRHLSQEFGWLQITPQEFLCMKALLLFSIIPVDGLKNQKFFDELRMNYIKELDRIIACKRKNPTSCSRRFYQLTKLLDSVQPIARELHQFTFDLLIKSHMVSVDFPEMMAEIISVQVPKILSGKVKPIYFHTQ

[2] = target: T2, Androgen receptor (Homo sapiens) (UniProt P10275); experiment: Competitive reversible inhibition of human androgen receptor LBD expressed in human […] cells at IC10 to IC70 in presence of […]; format: cell-based
T2 sequence (whole entry): T1 sequence (P10275 whole entry)

| Structure (SMILES) | IC50 ([1]; read-out: IC50) | IC50 ([1]; read-out: pIC50 (converted)) | inhibition [2] |
| --- | --- | --- | --- |
| Nc1ccc(-c2cc(=O)c3c(O)cccc3o2)cc1 | 1990 nM | 2000 nM | – |
| O=c1cc(-c2ccc(C(F)(F)F)cc2)oc2cccc(O)c12 | 1240 nM | 1230 nM | – |
| CSc1ccc(-c2cc(=O)c3c(O)cccc3o2)cc1 | 1070 nM | 1070 nM | – |
| N#Cc1ccc(-c2cc(=O)c3c(F)cccc3o2)cc1 | 1200 nM | 1200 nM | – |
| COc1cccc2oc(-c3ccc(F)cc3)cc(=O)c12 | 1610 nM | 1620 nM | – |
| NC(=O)c1ccc(-c2cc(=O)c3c(O)cccc3o2)cc1 | 3580 nM | 3550 nM | – |
| Cc1ccc(-c2cc(=O)c3c(O)cccc3o2)cc1 | 11100 nM | 11200 nM | – |

These reach a lower IC50 ([1]; read-out: IC50). Values come first.

| IC50 ([1]; read-out: IC50) | IC50 ([1]; read-out: pIC50 (converted)) | inhibition [2] | Structure (SMILES) |
| --- | --- | --- | --- |
| 250 nM | 251 nM | – | N#Cc1ccc(-c2cc(=O)c3c(O)cccc3o2)cc1 |
| 860 nM | 851 nM | – | O=c1cc(-c2ccc(O)cc2)oc2cccc(O)c12 |
| 460 nM | 457 nM | – | O=c1cc(-c2ccc(Cl)cc2)oc2cccc(O)c12 |
| 190 nM | 191 nM | Active | O=c1cc(-c2ccc(F)cc2)oc2cccc(F)c12 |
| 850 nM | 851 nM | – | CN(C)c1ccc(-c2cc(=O)c3c(O)cccc3o2)cc1 |
| 360 nM | 363 nM | – | O=c1cc(-c2ccc(Cl)cc2)oc2cccc(F)c12 |
| 360 nM | 363 nM | – | O=c1cc(-c2ccc([N+](=O)[O-])cc2)oc2cccc(O)c12 |
| 330 nM | 331 nM | – | O=c1cc(-c2ccc(F)cc2)oc2cccc(O)c12 |
| 770 nM | 776 nM | – | O=c1cc(-c2ccccc2)oc2cccc(F)c12 |
